Experimental data published in US11959083B2, “Immunosuppression-reverting oligonucleotides inhibiting the expression of CD39” (Secarna Pharmaceuticals GmbH & Co. KG, priority 2016, dated 2024).
l = locked nucleic acid (LNA); d = 2'-deoxy (DNA)

Key:
hCD39 mRNA [1] = assay: hCD39 mRNA knockdown efficacy screen in A-172 cells (single dose, gymnotic delivery, QuantiGene Singleplex); format: cell-based, human; conditions: 10 μM, 3 days, normalized to HPRT1; for Mean hCD39 mRNA expression (relative to untreated cells set as 1): first screening round; for Relative hCD39 mRNA expression (compared to non-treated cells): second screening round
Description: (§1) FIGS. 2A to 2D depict hCD39 mRNA knockdown efficacy of hCD39 antisense oligonucleotides in human cancer cell lines HDLM-2 (human Hodgkin Lymphoma) in a first and second screening round (FIGS. 2A-1 and 2A-2) and 2B-1 and 2B-2 and A-172 (human glioblastoma) in a first and second screening round (FIGS. 2C-1 and 2C-2) and 2D-1 and 2D-2. HDLM-2 and A-172 cells were treated for 3 days with 10 μM of the respective antisense oligonucleotide. As negative control, cells were treated with neg1, an antisense oligonucleotide having the sequence CGTTTAGGCTATGTACTT (SEQ ID NO:99) (described in WO2014154843 A1). Residual hCD39 mRNA expression relative to untreated cells is depicted. Expression values were normalized to expression of the housekeeping gene HPRT1. Depicted is the mean of triplicate wells+/−SD.
(§2) FIGS. 6A-6B depicts a third screening round where further antisense oligonucleotides were designed. These antisense oligonucleotides were based on efficient antisense oligonucleotides from the first and second screening round. Therefore, hCD39 antisense oligonucleotides were tested in human cancer cell lines HDLM-2 (human Hodgkin's lymphoma) (FIG. 6A) and A-172 (human glioblastoma) (FIG. 6B). HDLM-2 and A-172 cells were treated for 3 days with 10 μM of the respective antisense oligonucleotide. […] Residual hCD39 mRNA expression relative to untreated cells (set as 1) is depicted.
(§3) In order to analyze the efficacy of hCD39 antisense oligonucleotides of the present invention with regard to the knockdown of hCD39 mRNA expression in cancer cell lines, HDLM-2 (human Hodgkin Lymphoma, DSMZ) and A-172 (human glioblastoma, ATCC) cells were treated with a single dose (concentration: 10 μM without addition of any transfection reagent; this process is called gymnotic delivery) of the respective antisense oligonucleotide as shown in FIG. 2A to 2D. hCD39 and HPRT1 mRNA expression was analyzed three days later using the QuantiGene Singleplex assay (Affymetrix) and hCD39 expression values were normalized to HPRT1 values. […] Values of the mean normalized mRNA expression of hCD39 compared to non-treated cells are listed for A-172 (Table 4 for first screening round and Table 5 for second screening round) and HDLM-2 cells (Table 6 for first screening round and Table 7 for second screening round) in the following:
(§4) For a third screening round, new antisense oligonucleotides were designed. These antisense oligonucleotides were based on efficient antisense oligonucleotides from the first screening round with modifications in length, exact position on mRNA and chemical modification pattern. Therefore, hCD39 antisense oligonucleotides were tested in human cancer cell lines (FIG. 6A, Table 10) HDLM-2 (human Hodgkin's lymphoma) and (FIG. 6B, Table 11) A-172 (human glioblastoma). HDLM-2 and A-172 cells were treated for 3 days with 10 μM of the respective antisense oligonucleotide. […] Residual hCD39 mRNA expression relative to untreated cells (set as 1) is depicted.

hCD39 mRNA [2] = assay: hCD39 mRNA knockdown efficacy screen in HDLM-2 cells (single dose, gymnotic delivery, QuantiGene Singleplex); format: cell-based, human; conditions: 10 μM, 3 days; for Mean hCD39 mRNA expression normalized to HPRT1 relative to untreated control = 1: first screening round; for Relative hCD39 mRNA expression (compared to non-treated cells): second screening round, normalized to HPRT1
Description: as §1, §2, §3, §4

Substance | Mean hCD39 mRNA expression (relative to untreated cells set as 1) (hCD39 mRNA [1]) | Relative hCD39 mRNA expression (compared to non-treated cells) (hCD39 mRNA [1]) | Mean hCD39 mRNA expression normalized to HPRT1 relative to untreated control = 1 (hCD39 mRNA [2]) | Relative hCD39 mRNA expression (compared to non-treated cells) (hCD39 mRNA [2])
+G*+A*+G*G*C*G*A*A*A*T*T*G*C*A*+G*+A (antisense GAGGCGAAATTGCAGA; sugars from the 5' end l3 d11 l2, all phosphorothioate, methylation of C not given here) [A04024H] | 0.45 | 0.45 | 0.15 | 0.15
+G*+A*+G*A*G*A*A*T*G*T*A*G*G*T*+A*C*+C (antisense GAGAGAATGTAGGTACC; sugars from the 5' end l3 d11 l1 d1 l1, all phosphorothioate, methylation of C not given here) [A04048H] | 0.09 | 0.05 | 0.05 | 0.36
+C*+A*+T*G*T*A*G*C*C*C*A*A*A*+G*+T*+C (antisense CATGTAGCCCAAAGTC; sugars from the 5' end l3 d10 l3, all phosphorothioate, methylation of C not given here) [A04029H] | 0.45 | 0.46 | 0.03 | 0.03
+A*+G*+G*C*G*A*A*A*T*T*G*C*+A*+G*+A (antisense AGGCGAAATTGCAGA; sugars from the 5' end l3 d9 l3, all phosphorothioate, methylation of C not given here) [A04008H] | 0.46 | 0.46 | 0.20 | 0.20
+A*+G*+C*G*T*A*A*G*A*T*G*T*+T*+T*+T (antisense AGCGTAAGATGTTTT; sugars from the 5' end l3 d9 l3, all phosphorothioate, methylation of C not given here) [A04012H] | 0.43 | 0.43 | 0.11 | 0.10
+G*+A*G*T*A*C*A*A*C*T*G*A*+A*+C*+C (antisense GAGTACAACTGAACC; sugars from the 5' end l2 d10 l3, all phosphorothioate, methylation of C not given here) [A04018H] | 0.19 | 0.20 | 0.12 | 0.12
